Assay results published in the supplement of paper PMC10307832.

Tests used:
Assay in all cases: relative viability (nuclei count vs DMSO), 5 days (fraction); higher = more cells survive
BI-2536 + Palbociclib = compound: CC[C@@H]1C(=O)N(C)c2cnc(Nc3ccc(C(=O)NC4CCN(C)CC4)cc3OC)nc2N1C1CCCC1 [BI-2536] + CC(=O)c1c(C)c2cnc(Nc3ccc(N4CCNCC4)cn3)nc2n(C2CCCC2)c1=O [Palbociclib] (partner 0.5 µM)
How it was run: (§1)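 Lung cancer cell lines in 1536-well plates were dosed by pin tool the day after seeding, either with one drug alone or with a fixed anchor-drug dose plus five library-drug doses (not always all listed) in √10 steps. After 5 days, cells were fixed and their nuclei stained in one step (final 0.05% Triton X-100, 1% formaldehyde, 1 ug/ml Hoechst), then counted on 4× images. Relative viability is the nuclei count in treated wells divided by that in vehicle wells. Values are medians of duplicate plates.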

BI-2536 + AZD7762 = compound: CC[C@@H]1C(=O)N(C)c2cnc(Nc3ccc(C(=O)NC4CCN(C)CC4)cc3OC)nc2N1C1CCCC1 [BI-2536] + NC(=O)Nc1cc(-c2cccc(F)c2)sc1C(=O)N[C@H]1CCCNC1 [AZD7762] (partner 0.2 µM)
How it was run: as §1

[1] = compound: CC1CC(=O)N(C2=CN=C(N=C2N1C3CCCC3)NC4=C(C=C(C=C4)C(=O)NC5CCN(CC5)C)OC)C [NPK76-II-72-1] + Cc1nc(NC(=O)N2CCC[C@H]2C(N)=O)sc1-c1ccnc(C(C)(C)C(F)(F)F)c1 [Alpelisib] (partner 2 µM)
How it was run: as §1

BI-2536 + Bortezomib = compound: CC[C@@H]1C(=O)N(C)c2cnc(Nc3ccc(C(=O)NC4CCN(C)CC4)cc3OC)nc2N1C1CCCC1 [BI-2536] + CC(C)C[C@H](NC(=O)[C@H](Cc1ccccc1)NC(=O)c1cnccn1)B(O)O [Bortezomib] (partner 0.002 µM)
How it was run: as §1

Row | Cell Line | relative viability (BI-2536 + Palbociclib; first compound 0.01 µM) | relative viability (BI-2536 + Palbociclib; first compound 0.03162 µM) | relative viability (BI-2536 + Palbociclib; first compound 0.1 µM) | relative viability (BI-2536 + Palbociclib; first compound 0.3162 µM) | relative viability (BI-2536 + Palbociclib; first compound 1 µM) | relative viability (BI-2536 + AZD7762; first compound 0.01 µM) | relative viability (BI-2536 + AZD7762; first compound 0.03162 µM) | relative viability (BI-2536 + AZD7762; first compound 0.1 µM) | relative viability (BI-2536 + AZD7762; first compound 0.3162 µM) | relative viability (BI-2536 + AZD7762; first compound 1 µM) | relative viability ([1]; first compound 0.01 µM) | relative viability ([1]; first compound 0.03162 µM) | relative viability ([1]; first compound 0.1 µM) | relative viability ([1]; first compound 0.3162 µM) | relative viability ([1]; first compound 1 µM) | relative viability (BI-2536 + Bortezomib; first compound 0.01 µM) | relative viability (BI-2536 + Bortezomib; first compound 0.03162 µM) | relative viability (BI-2536 + Bortezomib; first compound 0.1 µM) | relative viability (BI-2536 + Bortezomib; first compound 0.3162 µM) | relative viability (BI-2536 + Bortezomib; first compound 1 µM)
1 | NCI-H522 | 1 | 0.922 | 1.13 | 0.4 | 0.303 | 0.826 | 0.879 | 0.944 | 0.302 | 0.365 |  |  |  |  |  |  |  |  |  | 
2 | HCC-15 | 0.704 | 0.66 | 0.547 | 0.17 | 0.144 | 0.653 | 0.966 | 1.03 | 0.156 | 0.149 | 0.828 | 0.965 | 0.875 | 0.919 | 0.97 | 1.01 | 0.96 | 0.902 | 0.542 | 0.114
3 | A-427 | 0.519 | 0.498 | 0.453 | 0.219 | 0.203 | 0.728 | 0.867 | 0.436 | 0.195 | 0.173 | 1.08 | 1.1 | 1.02 | 1.09 | 1.03 | 0.955 | 1.04 | 0.763 | 0.123 | 0.1
4 | NCI-H2228 | 0.749 | 0.618 | 0.232 | 0.157 | 0.111 |  |  |  |  |  | 0.595 | 0.81 | 0.555 | 0.733 | 0.807 | 1.13 | 0.911 | 0.16 | 0.198 | 0.187
5 | NCI-H1734 | 0.358 | 0.349 | 0.256 | 0.203 | 0.192 | 0.461 | 0.596 | 0.16 | 0.134 | 0.142 | 0.675 | 0.628 | 0.722 | 0.599 | 0.86 | 0.84 | 0.82 | 0.226 | 0.154 | 0.156
6 | PC-14 | 0.458 | 0.489 | 0.0853 | 0.0424 | 0.0288 | 0.41 | 0.395 | 0.32 | 0.0493 | 0.0531 | 0.943 | 0.956 | 0.946 | 0.916 | 1.04 | 0.851 | 0.835 | 0.665 | 0.0691 | 0.0558
7 | NCI-H1915 | 0.424 | 0.546 | 0.426 | 0.0999 | 0.0968 | 0.641 | 0.696 | 0.535 | 0.195 | 0.109 | 1.07 | 1.06 | 1.05 | 1.01 | 1.1 | 1.02 | 0.965 | 0.613 | 0.439 | 0.0752
8 | NCI-H1666 | 0.701 | 0.575 | 0.642 | 0.505 | 0.467 | 0.803 | 0.851 | 0.827 | 0.411 | 0.368 | 0.951 | 0.957 | 1.02 | 0.911 | 1.01 | 0.681 | 0.874 | 0.332 | 0.251 | 0.308
9 | HCC-366 | 0.364 | 0.389 | 0.225 | 0.0306 | 0.0265 | 0.246 | 0.37 | 0.156 | 0.017 | 0.0177 | 0.401 | 0.443 | 0.456 | 0.435 | 0.452 | 1.09 | 1.1 | 0.155 | 0.0158 | 0.0163
10 | SK-MES-1 | 0.345 | 0.301 | 0.187 | 0.222 | 0.208 |  |  |  |  |  | 0.835 | 0.847 | 0.868 | 0.907 | 0.883 |  |  |  |  | 
11 | SW 1573 | 0.347 | 0.237 | 0.172 | 0.116 | 0.0925 |  |  |  |  |  | 0.7 | 0.891 | 0.7 | 0.764 | 0.819 | 1.12 | 1.15 | 0.967 | 0.14 | 0.152
12 | NCI-H661 | 0.403 | 0.372 | 0.331 | 0.209 | 0.225 |  |  |  |  |  | 0.609 | 0.665 | 0.886 | 0.451 | 0.797 | 0.959 | 0.868 | 0.727 | 0.191 | 0.257
13 | PC-3 [JPC-3] | 0.54 | 0.828 | 0.5 | 0.416 | 0.424 | 0.878 | 0.76 | 0.321 | 0.216 | 0.197 | 1.01 | 0.949 | 0.987 | 0.985 | 1.09 | 0.799 | 0.93 | 0.834 | 0.5 | 0.233
14 | Calu-6 |  |  |  |  |  |  |  |  |  |  | 0.952 | 1.03 | 1.05 | 0.972 | 1.14 | 0.871 | 0.62 | 0.183 | 0.144 | 0.141
15 | LC-2-ad | 0.526 | 0.379 | 0.361 | 0.234 | 0.248 | 0.872 | 0.657 | 0.166 | 0.17 | 0.142 | 0.845 | 0.921 | 0.838 | 0.936 | 1 | 1.06 | 0.923 | 0.112 | 0.124 | 0.104
16 | CAL-12T | 0.431 | 0.351 | 0.249 | 0.127 | 0.132 | 0.608 | 0.712 | 0.619 | 0.177 | 0.187 | 1.13 | 1.15 | 0.877 | 1.03 | 1.27 | 0.926 | 0.823 | 0.393 | 0.182 | 0.192
17 | RERF-LC-KJ | 1.09 | 0.949 | 0.491 | 0.266 | 0.241 | 0.943 | 0.926 | 0.808 | 0.142 | 0.174 | 0.727 | 0.928 | 0.773 | 0.683 | 0.86 | 1.12 | 1.28 | 0.939 | 0.221 | 0.264
18 | NCI-H1650 | 0.382 | 0.282 | 0.188 | 0.129 | 0.145 |  |  |  |  |  |  |  |  |  |  | 0.198 | 0.195 | 0.18 | 0.18 | 0.171
